Measurements from US20250367160A1, “USE OF GUAIJAVERIN IN PREPARATION OF EYE PROTECTION PRODUCT” (Innovation Center of Yangtze River Delta, ZJU, priority 2024, published 2025).

Assays:
[1] = test system: IL-6; assay: Mouse retinal optical damage model, plasma IL-6 level; assay type: in vivo, BALB/c mice; settings: gavage once a day 10 days, vs model group, FIG. 8
Method: A self-made light box with a length of 108 cm, a width of 50 cm, and a height of 72 cm was used, and the light intensity was measured by a light meter to be 8,500-10,000 Lux. After eye examination, 60 mice with normal eyeballs were selected and randomly divided into a control group, a model group, a lutein group (100 mg/kg), a guaijaverin low-dose group (50 mg/kg), and a guaijaverin high-dose group (100 mg/kg), with 12 mice in each group. Lutein and guaijaverin were suspended in 5% sodium carboxymethylcellulose (CMC-Na) solution and administered by gavage once a day. The mice in the control and model groups were administered by gavage with an equal volume of 5% CMC-Na for 10 consecutive days. 10 days later, the mice in the model group, lutein group, guaijaverin low-dose group, and guaijaverin high-dose group were kept in the dark for 36 h, atropine eye gel was applied to both eyes of the mice to induce pupil dilation, and the mice were placed in the self-made lighting device of 8,000-10,000 Lux (the control group was raised in a normal environment) and given continuous light for 24 h. […]
The mouse blood was collected in an anticoagulant tube and centrifuged at 3,000 rpm for 10 min at 4° C. to collect the upper plasma. The IL-6 content was determined according to the method provided by the kit manufacturer.

[2] = test system: human primary retinal Müller cells; assay: Optical stress (strong white light) model of human primary retinal Müller cells, AlamarBlue cell viability; assay type: cell-based; settings: pre-incubation 24 h, 32k Lux strong light 4 h
Method: The human primary Müller cells in a logarithmic growth phase were inoculated at a density of 5,000 cells/well in a 96-well plate and cultured in a 37° C., 5% CO2 incubator for 24 h. The medium was removed by aspirating, and 6 replicate wells were set up for guaijaverin groups. 100 μL of the guaijaverin solution dissolved in DMSO solvent in advance was further diluted in DMEM and added into each well, at final concentrations of 10 μM and 30 μM, respectively. The control group was added with 100 μL of DMEM solution. A laboratory-made strong light irradiation system was used to model optical stress on human retinal primary Müller cells cultured in vitro. A strong light irradiation group was irradiated with 32k Lux of strong light for 4 h, while a weak light irradiation group was irradiated with 5k Lux of weak light for 4 h. Then, the cell viability was detected using the AlamarBlue kit.
After the cells were stressed by light, the AlamarBlue kit was used to detect cell viability. The cell culture supernatant was discarded, and the cells were washed twice with 100 μL of PBS. 100 μL of AlamarBlue reagent diluted 1:10 with DMEM solution was added, and the cells were incubated in a 37° C., 5% CO2 incubator for 4 h. The fluorescence of each well was read using a microplate reader at an excitation wavelength of 544 nm and an emission wavelength of 590 nm. 2.

[3] = test system: Wild-type AB zebrafish; assay: Determination of maximum test concentration (MTC) in zebrafish blue light eye damage model; assay type: in vivo; settings: 28° C.; for Death count / Development status (phenotype) / Mortality: aqueous, n = 30
Method: Wild-type AB zebrafish at 1 day post-fertilization (1 dpf) were randomly selected and irradiated with blue light after membrane rupture to establish the zebrafish blue light eye damage model. Model zebrafish with desirable development status were selected at 3 dpf and randomly distributed in 6-well plates, with 30 zebrafish in each well (experimental group) were treated. Different concentrations of guaijaverin (concentrations shown in Table 1) were administered aqueously, and a normal control group and a model group were set up, where a volume of each well was 3 mL. After treatment at 28° C. for 1 d, the MTC of guaijaverin on model zebrafish was determined.

[4] = test system: mouse retina; assay: Mouse retinal optical damage model, H&E histopathological evaluation of retina; assay type: in vivo, BALB/c mice; settings: for morphology and thickness of the outer nuclear layer retina and inner nuclear layer retina (H&E): gavage once a day 10 days, vs model group, FIG. 5
Method: A self-made light box with a length of 108 cm, a width of 50 cm, and a height of 72 cm was used, and the light intensity was measured by a light meter to be 8,500-10,000 Lux. After eye examination, 60 mice with normal eyeballs were selected and randomly divided into a control group, a model group, a lutein group (100 mg/kg), a guaijaverin low-dose group (50 mg/kg), and a guaijaverin high-dose group (100 mg/kg), with 12 mice in each group. Lutein and guaijaverin were suspended in 5% sodium carboxymethylcellulose (CMC-Na) solution and administered by gavage once a day. The mice in the control and model groups were administered by gavage with an equal volume of 5% CMC-Na for 10 consecutive days. 10 days later, the mice in the model group, lutein group, guaijaverin low-dose group, and guaijaverin high-dose group were kept in the dark for 36 h, atropine eye gel was applied to both eyes of the mice to induce pupil dilation, and the mice were placed in the self-made lighting device of 8,000-10,000 Lux (the control group was raised in a normal environment) and given continuous light for 24 h. After the light exposure, the mice in each group had their eyeballs removed to draw blood and eyeball tissue collected for subsequent experimental tests.
Eyeball tissues of 6 mice were collected from each group for Hematoxylin-eosin staining (H&E) and TUNEL fluorescence staining of apoptotic cells, and the pathological changes of mouse eyeball tissues were observed using an optical microscope (completed by Wuhan Servicebio Biotechnology Co., Ltd.).
a) Dewaxing of paraffin sections to water: the sections were sequentially placed in environmental-friendly dewaxing solution I for 20 min, environmental-friendly dewaxing solution II for 20 min, anhydrous ethanol I for 5 min, anhydrous ethanol II for 5 min, and 75% alcohol for 5 min, and then wash with tap water.
b) Pretreatment: the sections were placed into H&E high-definition constant staining pretreatment solution for 1 min. […]
f) The sections were examined under a microscope and the images were collected and analyzed.

[5] = test system: Heme Oxygenase-1 (HO-1 protein); assay: Mouse retinal optical damage model, Western blot of HO-1 protein in retina; assay type: in vivo, BALB/c mice; settings: high-dose 100 mg/kg, gavage once a day 10 days, vs model group, FIG. 9
Method: A self-made light box with a length of 108 cm, a width of 50 cm, and a height of 72 cm was used, and the light intensity was measured by a light meter to be 8,500-10,000 Lux. After eye examination, 60 mice with normal eyeballs were selected and randomly divided into a control group, a model group, a lutein group (100 mg/kg), a guaijaverin low-dose group (50 mg/kg), and a guaijaverin high-dose group (100 mg/kg), with 12 mice in each group. Lutein and guaijaverin were suspended in 5% sodium carboxymethylcellulose (CMC-Na) solution and administered by gavage once a day. The mice in the control and model groups were administered by gavage with an equal volume of 5% CMC-Na for 10 consecutive days. […]
The mouse retina was taken, and 100-150 μL of RIPA lysis buffer was added for every 10 mg of tissue. After sufficient lysis, the protein content was detected using a BCA protein quantification kit. […] The bands were analyzed by the supporting software of the red laser two-color imaging system, with GAPDH protein expression as an internal reference.

With `O=c1c(O[C@@H]2OC[C@H](O)[C@H](O)[C@H]2O)c(-c2ccc(O)c(O)c2)oc2cc(O)cc(O)c12` [Guaijaverin, guaijaverin] the “plasma level of IL-6” value ([1]; high-dose 100 mg/kg) was “significantly reduce the level of IL-6”, the “plasma level of IL-6” value ([1]; low-dose 50 mg/kg) was “significantly reduce the level of IL-6” and the “viability of Müller cells after strong light irradiation” value ([2]; 10 μM, FIG. 1) was “significantly restored”. For the same molecule, the “viability of Müller cells after strong light irradiation” value ([2]; 30 μM, FIG. 2) was “restored to the level under weak light irradiation conditions”, the Death count ([3]; 125 μg/mL, 1 d) was 0 per fish and the “Development status (phenotype)” value ([3]; 125 μg/mL, 1 d) was “Status similar to that of model”. For the same molecule, the Mortality ([3]; 125 μg/mL, 1 d) was 0%, the Death count ([3]; 150 μg/mL, 1 d) was 0 per fish and the “Development status (phenotype)” value ([3]; 150 μg/mL, 1 d) was “Status similar to that of model”. The Mortality ([3]; 150 μg/mL, 1 d) was 0%, the Dissolution ([3]; 200 μg/mL in fish water) was “Precipitated” and the Death count ([3]; 200 μg/mL, 1 d) was 0 per fish. For the same molecule, the “Development status (phenotype)” value ([3]; 200 μg/mL, 1 d) was “Status similar to that of model”, the Mortality ([3]; 200 μg/mL, 1 d) was 0% and the Dissolution ([3]; 250 μg/mL in fish water) was “Precipitated”. For the same molecule, the Death count ([3]; 250 μg/mL, 1 d) was 0 per fish, the “Development status (phenotype)” value ([3]; 250 μg/mL, 1 d) was “Status similar to that of model” and the Mortality ([3]; 250 μg/mL, 1 d) was 0%. The Dissolution ([3]; 500 μg/mL in fish water) was “Precipitated”, the Death count ([3]; 500 μg/mL, 1 d) was 0 per fish and the “Development status (phenotype)” value ([3]; 500 μg/mL, 1 d) was “Status similar to that of model”. For the same molecule, the Mortality ([3]; 500 μg/mL, 1 d) was 0%, the Dissolution ([3]; 1000 μg/mL in fish water) was “Precipitated” and the Death count ([3]; 1000 μg/mL, 1 d) was 0 per fish. For the same molecule, the “Development status (phenotype)” value ([3]; 1000 μg/mL, 1 d) was “Status similar to that of model”, the Mortality ([3]; 1000 μg/mL, 1 d) was 0% and the Dissolution ([3]; 2000 μg/mL in fish water) was “Precipitated”. For the same molecule, the Death count ([3]; 2000 μg/mL, 1 d) was 0 per fish, the “Development status (phenotype)” value ([3]; 2000 μg/mL, 1 d) was “Status similar to that of model” and the Mortality ([3]; 2000 μg/mL, 1 d) was 0%. The “MTC (maximum test concentration)” value ([3]; model zebrafish, 1 d) was 150 µg/mL, the “anti-optical damage eye protection efficacy compared with lutein (H&E)” value ([4]; high-dose 100 mg/kg vs lutein 100 mg/kg) was “better anti-optical damage eye protection efficacy than lutein” and the “morphology and thickness of the outer nuclear layer retina and inner nuclear layer retina (H&E)” value ([4]; high-dose 100 mg/kg) was “increase the thickness of the outer nuclear layer retina and inner nuclear layer retina”. For the same molecule, the “morphology and thickness of the outer nuclear layer retina and inner nuclear layer retina (H&E)” value ([4]; low-dose 50 mg/kg) was “increase the thickness of the outer nuclear layer retina and inner nuclear layer retina” and the “expression of HO-1 protein in the retinal tissue” value [5] was “significantly reduced the expression of HO-1 protein”.
